Reference: patent US20230063457A1, “DNA-PK INHIBITING COMPOUNDS” (Provincial Health Services Authority, priority 2019, published 2023)

Legend:
[1] = test system: HCT116 cells; assay: Stirred cell suspension assay, release of parent inhibitor from prodrug (HCT116); assay type: cell-based, human; settings: hypoxic conditions; 1% HCT116 cells by volume in media with 10% FBS at 37° C., FIG. 2
Method: Stirred Cell Suspension Assay
All compounds tested were dissolved in DMSO at 10 mM/L and further dilutions were made in culture medium. Final DMSO concentration was <0.3% (v/v). The human FaDu and HCT116 cells (ATCC) were cultured in MEM medium and 10% fetal calf serum (PAA). Cells were routinely maintained at densities of 0.2×10e6 cells per ml and incubated at 37° C. in a humidified 5% CO2, 95% air atmosphere. Cells were passaged twice a week, splitting back to obtain the low density. At the time of experiment, cells were trypsinized, counted and suspended at a density of 1% cells/volume in glass vials containing 2 ml stirred media and gassed at different pO2. After 30 minutes, test compounds were added at 25 μM/L and 150 μl samples were removed at intervals up to 4 hours. Each sample was split to test for (1) free drug and (2) total extraction and analysed using high performance liquid chromatography to measure the release of the parent inhibitor from the hypoxia activated prodrug.

[2] = biological target: DNA-PK kinase (Homo sapiens, UniProt P78527); assay: Inhibition of DNA-PK kinase activity (ADP-Glo); assay type: biochemical; settings: averaged values over all measurements on all batches; 150 μM ATP, 1 hour at 25° C.
Method: Inhibition of DNA-PK Kinase Activity Assay buffer was 50 mM Hepes pH 7.5 containing 0.1 mg/ml BSA (albumin from bovine serum), 50 μM DTT (dithiothreitol), 20 mM MgCl2 and 10 μg/ml calf thymus DNA (activation buffer). Kinase reaction was carried out in OptiPlate 384 plates (PerkinElmer 6007299). All compounds tested were dissolved in dimethyl sulfoxide (DMSO) and further dilutions were made in assay buffer. Final DMSO concentration was 1% (v/v). Pre-incubation consisted of compound (1% DMSO in control and blank wells) and 24 ng/well DNA-PK kinase to allow the compounds to bind the enzyme (with buffer in the blank wells) for 15 minutes; after this time 150 μM Adenosine-5′-triphosphate (ATP) and 0.2 μg/μl DNA-PK substrate were added to commence the kinase reaction. Incubations were carried out for 1 hour at 25° C. Kinase activity was determined by using ADP-Glo™ reagent from Promega according to the manufacturer's instructions. The light generated was measured using a luminometer (EnVision, PerkinElmer). Signal obtained in the wells containing blank samples was subtracted from all other wells and IC50 values were determined by fitting a sigmoidal curve to % inhibition of control versus Log10 compound concentration.

[3] = biological target: T1, Phospho-DNA-PK in FaDu Cells (Homo sapiens, UniProt P78527); assay: Effect of compounds on phospho-DNA-PK in FaDu cells (MesoScale sandwich immunoassay); assay type: cell-based; settings: 1 hour pre-incubation, 1 μg/ml Neocarzinostatin 2 hours, averaged values, read-out: MSD FaDu IC50
T1 construct: host or cells: FaDu
Method: Effect of Compounds on Phospho-DNA-PK in FaDu Cells
All compounds tested were dissolved in DMSO and further dilutions were made in culture medium. Final DMSO concentration was 0.3% (v/v). The human FaDu cells (ATCC) were cultured in MEM medium supplemented with Glutamax and 10% fetal calf serum (PAA). Cells were routinely maintained at densities of 0.2×10^6 cells per ml at 37° C. in a humidified 5% CO2, 95% air atmosphere. Cells were passaged twice a week, splitting back to obtain the low density. Cells were seeded in 96 well plates (Corning 3904) at 1×10^6 cells per ml media in a volume of 50 μl per well. Seeded cells were incubated at 37° C. in a humidified 5% CO2, 95% air atmosphere for 24 hours. Compounds were added (25 μl) to the cells and pre-incubated for 1 hour. 1 μg/ml DNA-damaging agent Neocarzinostatin (NCS) was added (25 μl) to a final volume of 100 μl and incubated for 2 hours at 37° C. in a humidified 5% CO2, 95% air atmosphere. After this period of time plates were removed from the incubator and the 100 μl dilutions were removed from the wells gently, prior to the addition of 75 μl cold RIPA lysis buffer with protease and phosphatase inhibitors to achieve the cells lysis, followed by shaking on a plate shaker at 4° C. for 30 minutes. At the end of this incubation, lysate was assessed for phospho-DNA-PK levels by sandwich immune-assay carried out in anti-mouse antibody coated MesoScale plates. […] Signal obtained in the wells containing blank samples was subtracted from all other wells and IC50 values were determined by fitting a sigmoidal curve to % inhibition of control versus Logo compound concentration.

Structure (SMILES) | conversion of prodrug to the respective parent compound [1] | IC50 [2] | IC50 [3]
CC(C)n1ncc(COc2cnc3cc(N4CCOCC4)nc(O[C@H]4CC[C@@H](n5ccnc5)CC4)c3c2)c1[N+](=O)[O-] [Prodrug 15] | released the respective parent compound | – | –
c1cnc(NCCCCOc2nc(N3CCOCC3)cc3ncccc23)nc1 [Example 8] | – | 279 nM | 6660 nM
Cc1cc(C)nc(NCC2CCN(c3nc(N4CCOCC4)cc4ncccc34)CC2)n1 [Example 117] | – | 125 nM | 1930 nM
OCCC1CCN(c2nc(N3CCOCC3)cc3ncccc23)CC1 [Example 15] | – | 108 nM | 2150 nM
c1ccc(NCC2CCN(c3nc(N4CCOCC4)cc4ncccc34)CC2)nc1 [Example 122] | – | 185 nM | 4360 nM
N#Cc1cnc(NCC2CCN(c3nc(N4CCOCC4)cc4ncccc34)CC2)nc1N [Example 103] | – | 45 nM | 3700 nM
Oc1cnc2cc(N3CCOCC3)nc(O[C@H]3CC[C@@H](c4ccccc4)CC3)c2c1 [Example 165] | – | 31 nM | 1170 nM
c1cnc2cc(N3CCOCC3)nc(O[C@H]3CC[C@@H](c4ncc[nH]4)CC3)c2c1 [Example 75] | – | 5 nM | 57 nM
NC(=O)[C@H]1CC[C@@H](COc2nc(N3CCOCC3)cc3ncccc23)CC1 [Example 6] | – | 74 nM | 2010 nM
c1cnc2cc(N3CCOCC3)nc(OC3CCN(c4ncn[nH]4)CC3)c2c1 [Example 155] | – | 134 nM | 7860 nM
c1cnc2cc(N3CCOCC3)nc(N3CCC(CNc4cnccn4)CC3)c2c1 [Example 114] | – | 117 nM | 9670 nM
CNC(=O)c1ccnc(NCC2CCN(c3nc(N4CCOCC4)cc4ncccc34)CC2)n1 [Example 105] | – | 51 nM | 1160 nM
Oc1ccnc(NCC2CCN(c3nc(N4CCOCC4)cc4ncccc34)CC2)n1 [Example 113] | – | 114 nM | 6600 nM
C[C@H]1CN(c2ncn[nH]2)CC[C@H]1Oc1nc(N2CCOCC2)cc2ncccc12 [Parent compound 161] | – | 125 nM | 2890 nM
c1cnc2cc(N3CCOCC3)nc(O[C@H]3CC[C@@H](n4cncn4)CC3)c2c1 [Example 80] | – | 7 nM | 240 nM
c1cnc(NC2CCCN(c3nc(N4CCOCC4)cc4ncccc34)CC2)nc1 (stereo not drawn) [Example 18] | – | 149 nM | 4640 nM
CC(=O)N1CCN(c2nc(N3CCOCC3)cc3ncccc23)CC1 [Example 84] | – | 188 nM | 3840 nM
c1cnc(NC2CCN(c3nc(N4CCOCC4)cc4ncccc34)CC2)nc1 [Example 16] | – | 139 nM | 18600 nM
c1cnc2cc(N3CCOCC3)nc(O[C@H]3CC[C@@H](n4nccn4)CC3)c2c1 [Example 81] | – | 10 nM | 507 nM
CN(C)S(=O)(=O)n1ccnc1C1CCN(c2nc(N3CCOCC3)cc3ncccc23)CC1 [Example 14] | – | 73 nM | 4470 nM
c1cnc(NC2CCC3CN(c4nc(N5CCOCC5)cc5ncccc45)CC32)nc1 (stereo not drawn) [Example 13] | – | 71 nM | 2840 nM
COC(=O)c1cc(N)nc(NCC2CCN(c3nc(N4CCOCC4)cc4ncccc34)CC2)n1 [Example 100] | – | 32 nM | 2360 nM
CC(C)(C)OC(=O)N1CCN(c2nc(N3CCOCC3)cc3ncccc23)CC1 [Example 19] | – | 159 nM | 6560 nM
NC(=O)c1ccnc(NCC2CCN(c3nc(N4CCOCC4)cc4ncccc34)CC2)n1 [Example 99] | – | 15 nM | 724 nM
FC(F)(F)c1cnc(NCC2CCN(c3nc(N4CCOCC4)cc4ncccc34)CC2)nc1 [Example 121] | – | 143 nM | 3520 nM
c1cnc2cc(N3CCOCC3)nc(OCC3CCN(c4ncn[nH]4)CC3)c2c1 [Parent compound 154] | – | 26 nM | 1070 nM
